Among the data in US20100105655A1, “NOVEL COMPOUNDS 515” (ASTRAZENECA AB, priority 2008, published 2010) are IC50 values, retold here.

The assay concerns the target T1, IGFR kinase (Homo sapiens, UniProt P08069).
T1 construct: purchased Millipore
The experiment in a line: Enzyme assay (c), IGFR kinase, Caliper LabChip. Format: biochemical.

[1] abbreviates: 30 nM IGFR kinase, 6 uM ATP, 3 uM peptide mix, read-out: IGFR IC50.

Where two headings read alike, the source gives them in different places.

T1 sequence (P08069 31-1367): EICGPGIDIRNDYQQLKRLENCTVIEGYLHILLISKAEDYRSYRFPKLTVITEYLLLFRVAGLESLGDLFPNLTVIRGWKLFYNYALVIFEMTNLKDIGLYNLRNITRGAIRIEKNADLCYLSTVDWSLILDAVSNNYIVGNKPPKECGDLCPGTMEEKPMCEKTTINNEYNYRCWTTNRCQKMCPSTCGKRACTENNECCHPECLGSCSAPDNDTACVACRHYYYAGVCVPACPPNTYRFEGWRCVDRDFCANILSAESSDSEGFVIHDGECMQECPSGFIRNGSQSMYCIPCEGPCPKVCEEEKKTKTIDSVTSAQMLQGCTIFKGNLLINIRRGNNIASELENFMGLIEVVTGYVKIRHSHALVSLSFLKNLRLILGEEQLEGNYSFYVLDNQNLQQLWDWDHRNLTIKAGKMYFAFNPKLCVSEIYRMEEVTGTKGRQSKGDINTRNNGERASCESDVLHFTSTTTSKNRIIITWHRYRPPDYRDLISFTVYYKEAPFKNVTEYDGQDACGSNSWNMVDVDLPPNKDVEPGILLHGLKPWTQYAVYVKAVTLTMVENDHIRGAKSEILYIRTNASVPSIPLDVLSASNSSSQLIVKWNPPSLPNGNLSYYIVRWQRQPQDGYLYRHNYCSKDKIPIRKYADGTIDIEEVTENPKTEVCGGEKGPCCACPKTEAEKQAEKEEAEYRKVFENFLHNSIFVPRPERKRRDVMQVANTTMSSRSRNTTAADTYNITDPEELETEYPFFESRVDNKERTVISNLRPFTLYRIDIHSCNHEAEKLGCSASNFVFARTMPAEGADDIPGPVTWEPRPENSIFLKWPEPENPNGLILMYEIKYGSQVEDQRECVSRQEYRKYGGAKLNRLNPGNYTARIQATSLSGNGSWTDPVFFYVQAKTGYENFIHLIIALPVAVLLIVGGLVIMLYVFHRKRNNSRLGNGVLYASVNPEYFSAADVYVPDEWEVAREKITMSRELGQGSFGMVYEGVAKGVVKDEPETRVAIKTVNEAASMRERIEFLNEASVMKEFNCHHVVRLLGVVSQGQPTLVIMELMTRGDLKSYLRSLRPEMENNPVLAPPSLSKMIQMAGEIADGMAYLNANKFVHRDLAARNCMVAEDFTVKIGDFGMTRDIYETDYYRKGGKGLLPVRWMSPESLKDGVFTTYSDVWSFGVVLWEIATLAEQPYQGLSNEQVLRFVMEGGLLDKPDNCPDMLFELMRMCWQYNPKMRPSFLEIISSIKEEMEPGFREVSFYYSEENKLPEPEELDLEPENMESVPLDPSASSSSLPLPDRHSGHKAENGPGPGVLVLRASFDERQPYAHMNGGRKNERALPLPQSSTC

`COc1cc(N2CC3CN(CCCO)CC(C2)O3)ccc1Nc1ncc(Cl)c(-c2cnc3c(F)cccn23)n1` [Example 204, 3-[7-[4-[[5-chloro-4-(8-fluoroimidazo[1,2-a]pyridin-3-yl)pyrimidin-2-yl]amino]-3-methoxy-phenyl]-9-oxa-3,7-diazabicyclo[3.3.1]nonan-3-yl]propan-1-ol] had an IC50 of 19 nM. For the compound `COc1ccc(OC[C@H]2CCCN2)cc1Nc1ncc(Cl)c(-c2cnc3ccccn23)n1` [Example 6.4, 5-chloro-4-imidazo[1,2-a]pyridin-3-yl-N-[2-methoxy-5-[[(2R)-pyrrolidin-2-yl]methoxy]phenyl]pyrimidin-2-amine], the IC50 under setting [1] amounted to 12 nM. With `COc1cc(N2CCN(C(=O)CO)CC2)ccc1Nc1ncc(Cl)c(-c2cnc3ccc(F)cn23)n1` [Example 249, 1-[4-[4-[[5-chloro-4-(6-fluoroimidazo[1,2-a]pyridin-3-yl)pyrimidin-2-yl]amino]-3-methoxy-phenyl]piperazin-1-yl]-2-hydroxy-ethanone], the IC50 under setting [1] was 5 nM. Take `COc1cc(N2CCN(CC(C)(C)O)CC2)ccc1Nc1ncc(Cl)c(-c2cnc3ccccn23)n1` [Example 52, 1-[4-[4-[(5-chloro-4-imidazo[1,2-a]pyridin-3-yl-pyrimidin-2-yl)amino]-3-methoxy-phenyl]piperazin-1-yl]-2-methyl-propan-2-ol]: the IC50 under setting [1] was determined as 10 nM. On the same count and under the same terms, with `COc1cc(N2CCN(C(C)=O)CC2)ccc1Nc1ncc(Cl)c(-c2cnc3cc(CN(C)C)ccn23)n1` [Example 185, 1-[4-[4-[[5-chloro-4-[7-(dimethylaminomethyl)imidazo[1,2-a]pyridin-3-yl]pyrimidin-2-yl]amino]-3-methoxy-phenyl]piperazin-1-yl]ethanone] the figure was 170 nM.

On to `COc1cc(N2CCN(C(=O)[C@H](N)CO)CC2)ccc1Nc1ncc(Cl)c(-c2cnc3ccccn23)n1` [Example 24.12, (2R)-2-amino-1-[4-[4-[(5-chloro-4-imidazo[1,2-a]pyridin-3-yl-pyrimidin-2-yl)amino]-3-methoxy-phenyl]piperazin-1-yl]-3-hydroxy-propan-1-one], for which the IC50 under setting [1] came out at 6 nM.

As for `COc1cc(CN2CCC(O)CC2)ccc1Nc1ncc(Cl)c(-c2cnc3ccccn23)n1` [Example 21.5, 1-[[4-[(5-chloro-4-imidazo[1,2-a]pyridin-3-yl-pyrimidin-2-yl)amino]-3-methoxy-phenyl]methyl]piperidin-4-ol], the IC50 under setting [1] was 28 nM. On the same count and under the same terms, with `COc1cc(C2CCN(C(=O)[C@@H](C)OC)CC2)ccc1Nc1ncc(Cl)c(-c2cnc3ccccn23)n1` [Example 28.1, (2R)-1-[4-[4-[(5-chloro-4-imidazo[1,2-a]pyridin-3-yl-pyrimidin-2-yl)amino]-3-methoxy-phenyl]-1-piperidyl]-2-methoxy-propan-1-one] the figure was 5 nM.

Consider `COc1ccc(N2CCNCC2)cc1Nc1ncc(C)c(-c2cnc3c(F)cccn23)n1` [Example 199, 4-(8-fluoroimidazo[1,2-a]pyridin-3-yl)-N-(2-methoxy-5-piperazin-1-yl-phenyl)-5-methyl-pyrimidin-2-amine], for which the IC50 under setting [1] was determined as 110 nM. As for `COCCN1CCN(CCOc2ccc(Nc3ncc(Cl)c(-c4cnc5ccccn45)n3)c(OC)c2)CC1` [Example 3.12, 5-chloro-4-imidazo[1,2-a]pyridin-3-yl-N-[2-methoxy-4-[2-[4-(2-methoxyethyl)piperazin-1-yl]ethoxy]phenyl]pyrimidin-2-amine], under setting [1], the IC50 was 44 nM. Take `COc1cc(N2CCNCC2=O)ccc1Nc1ncc(Cl)c(-c2cnc3c(F)cccn23)n1` [Example 224, 1-[4-[[5-chloro-4-(8-fluoroimidazo[1,2-a]pyridin-3-yl)pyrimidin-2-yl]amino]-3-methoxy-phenyl]piperazin-2-one]: the IC50 under setting [1] was 3 nM. Still for that read-out and setting: with `COc1cc(N2CCN(C(=O)N3CCOCC3)CC2)ccc1Nc1ncc(Cl)c(-c2cnc3ccccn23)n1` [Example 46, [4-[4-[(5-chloro-4-imidazo[1,2-a]pyridin-3-yl-pyrimidin-2-yl)amino]-3-methoxy-phenyl]piperazin-1-yl]-morpholino-methanone] the figure was 13 nM. Same read-out and setting: with `COc1cc(N2CC3CN(CCO)CC(C2)O3)ccc1Nc1ncc(C)c(-c2cnn3ccccc23)n1` [Example 166, 2-[7-[3-methoxy-4-[(5-methyl-4-pyrazolo[1,5-a]pyridin-3-yl-pyrimidin-2-yl)amino]phenyl]-9-oxa-3,7-diazabicyclo[3.3.1]nonan-3-yl]ethanol] the figure was 17 nM; with `COc1cc(N2CCN(CCO)CC2)ccc1Nc1ncc(Cl)c(-c2cnn3ccccc23)n1` [Example 134, 2-[4-[4-[(5-chloro-4-pyrazolo[1,5-a]pyridin-3-yl-pyrimidin-2-yl)amino]-3-methoxy-phenyl]piperazin-1-yl]ethanol], 5 nM; with `COc1cc(N2CCN(C(C)=O)CC2)ccc1Nc1ncc(F)c(-c2cnn3ccccc23)n1` [Example 170, 1-[4-[4-[(5-fluoro-4-pyrazolo[1,5-a]pyridin-3-yl-pyrimidin-2-yl)amino]-3-methoxy-phenyl]piperazin-1-yl]ethanone], 67 nM. As for `COc1cc(N2CCN(C(C)=O)CC2)ccc1Nc1ncc(Cl)c(-c2cnc3cc(CN(C)C(C)=O)ccn23)n1` [Example 188, N-[[3-[2-[4-(4-acetylpiperazin-1-yl)-2-methoxy-anilino]-5-chloro-pyrimidin-4-yl]imidazo[1,2-a]pyridin-7-yl]methyl]-N-methyl-acetamide], the IC50 under setting [1] was found to be 120 nM. With `COc1ccc(N2CC[C@H](N(C)C)C2)cc1Nc1ncc(Cl)c(-c2cnc3ccccn23)n1` [Example 3.17, 5-chloro-N-[5-[(3S)-3-dimethylaminopyrrolidin-1-yl]-2-methoxy-phenyl]-4-imidazo[1,2-a]pyridin-3-yl-pyrimidin-2-amine], the IC50 under setting [1] worked out at 125 nM. As to `COc1cc(N2CC(C)N(C(C)=O)C(C)C2)ccc1Nc1ncc(Cl)c(-c2cnc3ccccn23)n1` (stereo not drawn) [Example 3.31, 1-[4-[4-[(5-chloro-4-imidazo[1,2-a]pyridin-3-yl-pyrimidin-2-yl)amino]-3-methoxy-phenyl]-2,6-dimethyl-piperazin-1-yl]ethanone], the IC50 under setting [1] was 11 nM. The same measure, in the same setting: for `COc1cc(N2CC3CN(CC(=O)N(C)C)CC(C2)O3)ccc1Nc1ncc(Cl)c(-c2cnc3c(F)cccn23)n1` [Example 205, 2-[3-[4-[[5-chloro-4-(8-fluoroimidazo[1,2-a]pyridin-3-yl)pyrimidin-2-yl]amino]-3-methoxy-phenyl]-9-oxa-3,7-diazabicyclo[3.3.1]nonan-7-yl]-N,N-dimethyl-acetamide] the value was 7 nM. Same read-out and setting: with `COc1cc(N2CC[C@@H](N(C)C)C2)ccc1Nc1ncc(F)c(-c2cnc3ccccn23)n1` [Example 76, N-[4-[(3R)-3-dimethylaminopyrrolidin-1-yl]-2-methoxy-phenyl]-5-fluoro-4-imidazo[1,2-a]pyridin-3-yl-pyrimidin-2-amine] the figure was 33 nM; with `COCC(=O)N1CCN(c2ccc(Nc3ncc(Cl)c(-c4cnc5ccccn45)n3)c(OC)c2)CC1` [Example 39, 1-[4-[4-[(5-chloro-4-imidazo[1,2-a]pyridin-3-yl-pyrimidin-2-yl)amino]-3-methoxy-phenyl]piperazin-1-yl]-2-methoxy-ethanone], 12 nM. For `COc1cc(OC2CCN(S(C)(=O)=O)CC2)ccc1Nc1ncc(Cl)c(-c2cnc3ccccn23)n1` [Example 8, 5-chloro-4-imidazo[1,2-a]pyridin-3-yl-N-[2-methoxy-4-[(1-methylsulfonyl-4-piperidyl)oxy]phenyl]pyrimidin-2-amine], the IC50 under setting [1] worked out at 20 nM.

As for `COc1cc(C2CCN(C(=O)[C@@H](C)O)CC2)ccc1Nc1ncc(C)c(-c2cnn3ccccc23)n1` [Example 164, (2R)-2-hydroxy-1-[4-[3-methoxy-4-[(5-methyl-4-pyrazolo[1,5-a]pyridin-3-yl-pyrimidin-2-yl)amino]phenyl]-1-piperidyl]propan-1-one], the IC50 under setting [1] was 15 nM. For the compound `COc1cc(N2CCN(CCO)CC2)ccc1Nc1ncc(C)c(-c2cnc3ccc(F)cn23)n1` [Example 264, 2-[4-[4-[[4-(6-fluoroimidazo[1,2-a]pyridin-3-yl)-5-methyl-pyrimidin-2-yl]amino]-3-methoxy-phenyl]piperazin-1-yl]ethanol], under setting [1], the IC50 was 12 nM. On to `COc1cc(OCC(=O)N(C)C)ccc1Nc1ncc(Cl)c(-c2cnc3c(F)cccn23)n1` [Example 217, 2-[4-[[5-chloro-4-(8-fluoroimidazo[1,2-a]pyridin-3-yl)pyrimidin-2-yl]amino]-3-methoxy-phenoxy]-N,N-dimethyl-acetamide], for which the IC50 under setting [1] stood at 10 nM.

Take `COc1cc(N2C[C@@H](C)N(C(C)=O)C[C@@H]2C)ccc1Nc1ncc(Cl)c(-c2cnc3ccccn23)n1` [Example 3.35, 1-[(2R,5S)-4-[4-[(5-chloro-4-imidazo[1,2-a]pyridin-3-yl-pyrimidin-2-yl)amino]-3-methoxy-phenyl]-2,5-dimethyl-piperazin-1-yl]ethanone]: the IC50 under setting [1] stood at 10 nM. On to `COc1cc(C(C)C(=O)N2CCNCC2)ccc1Nc1ncc(Cl)c(-c2cnc3ccccn23)n1` (stereo not drawn) [Example 3.42, 2-[4-[(5-chloro-4-imidazo[1,2-a]pyridin-3-yl-pyrimidin-2-yl)amino]-3-methoxy-phenyl]-1-piperazin-1-yl-propan-1-one], for which the IC50 under setting [1] amounted to 25 nM. With `COc1cc(C2CCN(C(C)=O)CC2)ccc1Nc1ncc(C(F)(F)F)c(-c2cnc3ccccn23)n1` [Example 108, 1-[4-[4-[[4-imidazo[1,2-a]pyridin-3-yl-5-(trifluoromethyl)pyrimidin-2-yl]amino]-3-methoxy-phenyl]-1-piperidyl]ethanone], the half-maximal inhibitory concentration (IC50) under setting [1] was found to be 14 nM. Turning to `COc1ccc(N2CCN(C(N)=O)CC2)cc1Nc1ncc(Cl)c(-c2cnc3ccccn23)n1` [Example 55, 4-[3-[(5-chloro-4-imidazo[1,2-a]pyridin-3-yl-pyrimidin-2-yl)amino]-4-methoxy-phenyl]piperazine-1-carboxamide], the IC50 under setting [1] worked out at 33 nM. Regarding `COc1cc(N2CCN(C(C)CO)CC2)ccc1Nc1ncc(C)c(-c2cnc3ccccn23)n1` (stereo not drawn) [Example 274, 2-[4-[4-[(4-imidazo[1,2-a]pyridin-3-yl-5-methyl-pyrimidin-2-yl)amino]-3-methoxy-phenyl]piperazin-1-yl]propan-1-ol], the IC50 under setting [1] was 14 nM.
